Measurements from patent publication US20210290610A1, “COMBINATION OF FXR AGONISTS” (priority 2016, published 2021).

Tests used:
[1] = test system: STAM Model of Non-alcoholic Steatohepatitis; assay: In vivo efficacy study in the STAM model of non-alcoholic steatohepatitis; set-up: species or system C57BL/6 mice; settings: for NAFLD Activity Score (NAS) compared with the STAM-Vehicle group: FIG. 1.1
Description: Example: In Vivo Efficacy Study of cenicriviroc in combination with Compound A (“NVP-CH-4”) and Compound B (“NVP-CH-5”) in the STAM Model of Non-alcoholic Steatohepatitis (Treatment period: 6 to 9 wks or 9 to12 wks)
The study involves 14-day-pregnant C57BL/6 mice. NASH was established by a single subcutaneous injection of […] streptozotocin (Sigma, USA) after birth and feeding with a high fat diet (HFD, 57% kcal fat, CLEA Japan, Japan) ad libitum after 4 weeks of age (day 28±2). Randomization of NASH mice into six groups of 12 mice at 6 weeks of age (day 42±2) and six groups of 12 mice at 9 weeks of age (day 63±2), the day before the start of treatment, respectively. NASH animals were dosed from age 6-9 weeks (Study 1), or from age 9-12 weeks (Study 2) with either: vehicle, cenicriviroc, Compound A (“NVP-CH-4”), Compound B (“NVP-CH-5”), cenicriviroc+Compound A or cenicriviroc+Compound B. A non-disease vehicle-control group of 12 mice was included in both Study 1 and Study 2. These animals were fed with a normal diet (CE-2; CLEA Japan) ad libitum.
PK samples were collected and stored at −60° C. Animals were dosed according to the dosing schedule below. Each animal was sacrificed 5 hours after last morning dose on the last day of study treatment (the evening dose of cenicriviroc or vehicle […] that day due to sacrifice).
Dosing: • Cenicriviroc was prepared in 0.5% (w/v) methylcellulose with 1% Tween® 80 in sterile water for injection (USP). • Compound A and Compound B were prepared in 0.5% (w/v) methylcellulose (400 cPs) aqueous solution containing 0.5% (v/v) polysorbate 80, NF, in reverse osmosis water. • In general, cenicriviroc monotherapy was administered twice daily, 12 hours apart (AM and PM). For Compound A or Compound B monotherapy groups, drug was administered once daily in the morning with vehicle alone in the evening (12 hours after the morning dose).
End of Treatment Measurements: Mice were sacrificed at 9 weeks of age (study 1) or at 12 weeks of age (study 2).
The following biochemical assays were performed: Non-fasting blood glucose in whole blood by Life Check (Eidia, Japan); serum ALT by FUJI DRI-CHEM (Fujifilm, Japan); serum triglyceride; serum MCP-1, RANTES (CCLS) and MIP-1α/MIP-1 quantification by a commercial ELISA kit; liver triglyceride by Triglyceride E-test kit (Wako, Japan); liver hydroxyproline quantification by hydrolysis method; histological analyses for liver section; HE staining and estimation of NAFLD Activity score; Sirius-red staining and estimation of fibrosis area (with and without perivascular space subtracted); oil red staining and estimation of fat deposition area; F4/80 immunohistochemistry staining and estimation of inflammation area; alpha-SMA immunohistochemistry staining and estimation of α-SMA positive area Gene expression assays using total RNA from the liver.
Statistical tests were performed using one-way ANOVA followed by Dunnett's test and the Mann-Whitney test, as appropriate, for the multiple group comparisons. P values <0.05 are considered statistically significant.

[2] = test system: nonalcoholic steatohepatitis patients; settings: cited from earlier work
[3] = test system: NASH in adults with liver fibrosis; settings: cited from earlier work
PBC = PBC patients; cited from earlier work
[4] = Study 1, treatment week 6-9, CVC 50 mg/kg AM and PM, Compound A 0.1 mg/kg, Compound B 10 mg/kg
[5] = Study 2, treatment week 9-12, same doses
[6] = NASH adults with liver fibrosis, one year

SMILES: O=C(O)c1cc(F)c2nc(N3C4CCC3CC(OCc3c(-c5ccccc5OC(F)(F)F)noc3C3CC3)C4)sc2c1 (centres unmarked) [Compound A, 2-[3-({5-cyclopropyl-3-[2-(trifluoromethoxy)phenyl]-1,2-oxazol-4-yl}methoxy)-8-azabicyclo[3.2.1]octan-8-yl]-4-fluoro-1,3-benzothiazole-6-carboxylic acid]
- NAFLD Activity Score (NAS) compared with the STAM-Vehicle group [1, 4]: significant reductions in NAS
- NAFLD Activity Score (NAS) compared with the STAM-Vehicle group [1, 5]: significant reductions in NAS

SMILES: CC[C@H]1[C@@H](O)[C@@H]2[C@H](CC[C@]3(C)[C@@H]([C@H](C)CCC(=O)O)CC[C@@H]23)[C@@]2(C)CC[C@@H](O)C[C@@H]12 [obeticholic acid, Obeticholic acid]
- safety concerns of long term administration [2]: can be associated with pruritus, as well as with increased LDL cholesterol

SMILES: CCCCOCCOc1ccc(-c2ccc3c(c2)/C=C(/C(=O)Nc2ccc([S@@+]([O-])Cc4cncn4CCC)cc2)CCCN3CC(C)C)cc1 [CVC, (S,E)-8-(4-(2-butoxyethoxy)phenyI)-1-(2-methylpropyl)-N-(4-(((1-propyl-1H-imidazol-5-yl)methyl)sulfinyl)phenyl)-1,2,3,4-tetrahydrobenzo[b]azocine-5-carboxamide]
- NAFLD Activity Score (NAS) compared with the STAM-Vehicle group [1, 4]: significant reductions in NAS
- fibrosis [3, 6]: reduction of fibrosis
- improvement of NAS [3, 6]: no significant impact
- adverse effects ([3]; patients): can induce fatigue or diarrhea in a small part of the patients

SMILES: Cn1nc(C(=O)N(Cc2ccccc2)Cc2ccc(C(=O)O)cc2)c2c1-c1cc(Cl)ccc1OC2 [Compound B, 4-((N-benzyl-8-chloro-1-methyl-1,4-dihydrochromeno[4,3-c]pyrazole-3 carboxamido)methyl)benzoic acid]
- NAFLD Activity Score (NAS) compared with the STAM-Vehicle group [1, 4]: significant reductions in NAS
- inflammatory cell infiltration score compared with the STAM-Vehicle group ([1]; Study 1, week 6-9, FIG. 1.2): significant reductions in the inflammatory cell infiltration score
- NAFLD Activity Score (NAS) compared with the STAM-Vehicle group [1, 5]: significant reductions in NAS

SMILES: C[C@H](CCC(=O)O)[C@H]1CC[C@H]2[C@@H]3[C@@H](O)C[C@@H]4C[C@H](O)CC[C@]4(C)[C@H]3CC[C@]12C [UDCA, Ursodeoxycholic acid]
- population that does not respond (PBC): 30-40%
